Experimental data taken from patent US20250002865A1, “METHOD FOR PRODUCING ORGANISM, AND METHOD FOR PROMOTING DIFFERENTIATION OF HUMAN ADIPOSE-DERIVED STEM CELLS INTO VASCULAR ENDOTHELIAL CELLS” (TOPPAN Holdings Inc., priority 2021, published 2025).
Where “and” joins values, the source holds several entries; their conditions need not be identical. Identical values can stand only once.

Key:
[1] = test system: cell balls of mature adipocytes and cells recovered from ADSC tissue construct
Method: Isolated ADSC was suspended in an EGM-2 medium, seeded in a 10-cm dish, and incubated at 37° C. The culture medium was changed every 2 days, and culture was carried out for 7 days to obtain a tissue construct. From this tissue construct, cells including ADSC, ADSC-derived vascular endothelial cells, and vascular endothelial progenitor cells were recovered.
The total number of cells of the tissue construct (cell ball) used was 4.0×10^4 cells/ball, and the mature adipocytes and the above-described recovered cells were used a ratio of 3:2.5 for the production.
The cell ball seeded in the low-adhesion 96-well plate was incubated in a 37° C. incubator for 15 minutes to carry out gelation, and 300 μL of EGM-2 or KBM was added thereto. […] In addition, EGM-2 or KBM, containing only insulin of a final concentration of 10 μg/mL and an ALK-5 inhibitor of 5 μM, was used as a control.
(§1) After 24 hours of culture, cells were transferred to a low-adhesion 24-well plate (IWAKI #4820-800LP), and 2 mL of the above EGM-2 or KBM was added thereto. The culture medium was changed every 2 to 3 days until the 7th day of culture.
The fluorescence imaging of the tissue construct was carried out as in Production Example 4, except that an anti-von Willebrand factor (vWF) antibody diluted 100-fold in a 1% BSA/PBS solution was used as a primary antibody solution and an Alexa Fluor 647-labeled anti-rabbit IgG antibody solution diluted 200-fold in 1% BSA/PBS solution was used as a secondary antibody solution. The vWF was used as a marker for vascular endothelial cells. In addition, for observation, the cell ball was placed directly on a complete plate of a Confocal Quantitative Image Cytometer CQ1 (Yokogawa Electric Corporation), and the stained tissue construct was observed using the Confocal Quantitative Image Cytometer CQ1 with laser excitation light at 640 nm.

[2] = test system: cell balls of mature adipocytes and cells recovered from ADSC tissue construct; conditions: VEGF 50 ng/mL in EGM-2 with 10 μg/mL insulin and 5 μM ALK-5 inhibitor, 7 days
Method: Regarding the produced tissue construct, 5 μL (equivalent to one cell ball) of the mixture (equivalent to 40 cell balls) was seeded on each well of a low-adhesion 96-well plate (IWAKI #4860-800LP).
The cell ball seeded in the low-adhesion 96-well plate was incubated in a 37° C. incubator for 15 minutes to carry out gelation, and 300 μL of EGM-2 containing insulin of a final concentration of 10 μg/mL, an AKL-5 inhibitor of 5 μM, and VEGF of 50 ng/mL was added thereto.
as §1
The fluorescence imaging of the tissue construct was carried out as in Production Example 4, except that various primary antibody solutions and the corresponding secondary antibody solutions were used. […]
For observation, the cell ball was placed directly on a complete plate of a Confocal Quantitative Image Cytometer CQ1 (Yokogawa Electric Corporation), and the stained tissue construct was observed using the Confocal Quantitative Image Cytometer CQ1. […]

[3] = test system: human adipose stem cell (ADSC); conditions: 5 μM in EGM-2, 7 days, compared with EGM-2 without ALK5 inhibitor
Method: The culture medium was changed every 2 days, and culture was carried out for 7 days after seeding to obtain a tissue construct.
Fluorescence imaging of the tissue construct was carried out according to the following procedure. A transwell containing the obtained tissue construct was transferred to a 24-well plate. After washing with 2 mL of PBS, the tissue was fixed overnight under the condition of 4° C. using 2 mL of 4% PFA. Washing was carried out three times using 2 mL of PBS. Cells were subjected to permeabilization treatment for 7 minutes under room temperature conditions by using 0.05% Triton/PBS (500 μL in the transwell and 500 μL outside the transwell), and washing was carried out three times using 2 mL of PBS.
The tissue was subjected to blocking treatment for 1 hour under room temperature conditions by using a 1% BSA/PBS solution (500 μL in the transwell and 500 μL outside the transwell). The BSA solution was aspirated, and 100 μL of a primary antibody solution (an anti-CD31 antibody diluted 100-fold in a 1% BSA/PBS solution) was added (50 μL in the transwell and 50 μL outside the transwell). A wet tissue paper was placed under the plate, and the plate was covered with an aluminum foil and incubated overnight under the condition of 4° C. […]

[4] = test system: human adipose stem cell (ADSC); conditions: 5 μM in EGM-2 for 7 days, then 24 hours on Matrigel; compared with EGM-2 without ALK5 inhibitor
Method: The culture medium was changed every 2 days, culture was carried out for 7 days. Thereafter, the ADSC was separated from the dish using trypsin/EDTA and suspended in 1 mL of DMEM, and the number of cells was counted. Further, the recovered ADSC was seeded on a 24-well plate previously coated with Matrigel at concentrations of 1.0×10^5 cells/dish, 1.5×10^5 cells/dish, and 2.0×10^5 cells/dish, and incubated at 37° C. for 24 hours. Thereafter, the morphology of the tissue construct was evaluated with a phase contrast microscope.

[5] = test system: human adipose stem cell (ADSC); conditions: 5 μM in EGM-2, 7 days
Method: The culture medium was changed every 2 days, and culture was carried out for 7 days to obtain a tissue construct. Thereafter, the ADSC was gently detached while leaving cell surface proteins, by incubation for 5 minutes using 0.25% Trypsin, recovered from the dish, and suspended in 1 mL of DMEM, and the number of cells was counted.
The ratio of vascular endothelial cells in the tissue construct was analyzed by the flow cytometry analysis using BD Facsmelody (registered trademark) cell sorter (Becton, Dickinson and Company). The tissue construct recovered as described above was centrifuged (100 g, 5 minutes, 4° C.). […] Thereafter, cells were centrifuged (100 g, 5 minutes, 4° C.) to wash the cells, and the pelleted cells were suspended in a buffer, and 10,000 events were recorded. Further, an isotype control for the conjugated antibody was measured simultaneously. […]
The ratio of vascular endothelial cells in the sample was analyzed by the flow cytometry analysis using BD Facsmelody (registered trademark) cell sorter (Becton, Dickinson and Company). […] Thereafter, cells were centrifuged (100 g, 5 minutes, 4° C.) to wash the cells, and the pelleted cells were suspended in a buffer, and 10,000 events were recorded. Further, an isotype control for the conjugated antibody was measured simultaneously. […]

Row | Molecule | vascular network, number of branches of blood vessels, vs control without VEGF ([1]; VEGF 0.5, 20, 50 or 100 ng/mL in EGM-2 or KBM with 10 μg/mL insulin and 5 μM ALK-5 inhibitor, 7 days) | vascular network, number of branches of blood vessels, vs culture medium containing leptin ([1]; VEGF-containing medium vs leptin 1 μg/mL, both with insulin and 5 μM ALK-5 inhibitor, 7 days) | vascular network, amount of blood vessels among VEGF concentrations ([1]; culture medium containing more than 20 ng/mL of VEGF) | proportion of vWF-positive vs CD34-positive cells among total CD31-positive cells [2] | vascular network formation in cell ball [2] | vascular network formation by CD31 staining [3] | lumen formation / vascular network on Matrigel [4] | ratio of vascular endothelial cells (CD31+) based on number of total cells recovered [5]
1 | VEGF | the number of branches of blood vessels is large as compared with the control cell ball | the number of branches of blood vessels is large as compared with the cell ball cultured in a culture medium containing leptin | a vascular network having still more blood vessels was formed | the proportion of vWF-positive cells with respect to the total CD31-positive cells was higher than the proportion of CD34-positive cells | a vascular network was also formed |  |  | 
2 | Cc1cccc(-c2n[nH]cc2-c2ccc3ncccc3n2)n1 [ALK5 inhibitor, 2-[3-(6-methyl-2-pyridinyl)-1H-pyrazol-4-yl]-1,5-naphthyridine] |  |  |  |  |  | a vascular network in which the number of branches is larger is formed | lumen formation is further progressed | 29.29% and 32.4%
